Experimental findings from PubChem BioAssay (NCI) are described below.

Values joined by “and” are separate entries in the source; they are usually repeats but may differ in a detail not shown here. Identical values can stand only once.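 How tested: cells in 96-well plates exposed to compound for 48 hours at five concentrations. Abbreviation: GI50, concentration required for 50% inhibition of growth. Definition used: TGI = concentration required for complete inhibition of growth.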

Common to all, as to experiment: growth of human tumour cells (NCI), 48 h
Experiment [1] has as its system HCT-116 colon.
Experiment [2] concerns HS 578T breast.
Experiment [3] has as its system MDA-MB-231 breast.
The test system of experiment [4] is OVCAR-3 ovarian.
Experiment [5] relates to PC-3 prostate.
Experiment [6] relates to SK-MEL-28 melanoma.
Experiment [7] relates to SK-MEL-5 melanoma.
The test system of experiment [8] is SR leukemia.
The test system of experiment [9] is UO-31 renal.
In experiment [10] the test system is BT-549 breast.
For experiment [11], the system named is HCC-2998 colon.

As for `COc1ccccc1/C=C(/C)[N+](=O)[O-]`, the GI50 in [1] is 5.36 µM and 2.35 µM; in experiment [8], 237 nM and 1500 nM. Besides, the TGI is 29.3 µM and 26.9 µM in experiment [2]; 17.7 µM and 7.87 µM in [3]; 3.15 µM and 2.68 µM in experiment [4]; 6.5 µM and 5.37 µM in experiment [5]; 5.64 µM and 4.97 µM in experiment [6]; 5.1 µM and 3.59 µM in experiment [7]. The TGI in [8] is 1.61 µM and 5.08 µM; in experiment [9], 3.36 µM and 3.39 µM.
For the compound `CC(C)/C=C1\CCC(CN(C)C)C1=O` (stereo not given), the TGI in experiment [10] came to 7.83 µM; in [11] it was 19.1 µM; in experiment [1] it was 2.5 µM; in [3] it was 3.01 µM; in experiment [4], 7.97 µM; in experiment [5] it was 14.5 µM. In addition, the TGI is 5.07 µM in experiment [6], 12.4 µM in [7], 4.53 µM in [8] and 16.5 µM in experiment [9].
On to `Cc1ccc(S(=O)c2cccs2)cc1` (stereo not given), for which the TGI in experiment [10], in [1], in [4], in [5], in experiment [6] and in experiment [8] was above 100 µM in each case. Further, the TGI in experiment [9] was above 100 µM.
Turning to `COC(=O)C1(NC(=O)C(Cc2ccccc2)N(C(=O)OC(C)(C)C)C(=O)OC(C)(C)C)CCCC1` (stereo not given), the TGI in experiment [11], in experiment [1], in experiment [2], in [3], in experiment [5] and in [6] was above 100 µM in each case. The results for the TGI in [7], in experiment [8] and in experiment [9] were above 100 µM, above 10 µM and above 100 µM, respectively.
Regarding `Nc1nc2c(N)cc(C(F)(F)F)cc2nc1-c1ccccc1`, the TGI in [11], in experiment [1], in experiment [4], in [6], in experiment [7] and in [8] was above 100 µM throughout. The TGI in [9] is above 100 µM.
Take `Cc1ccc(C(=O)CC2(O)C(=O)Nc3c(C)cc(Cl)cc32)cc1` (stereo not given): the TGI in experiment [11], in [4], in experiment [6], in [7] and in experiment [9] was above 100 µM in each case.
`CC1=C(c2nc3ccccc3s2)C(=O)OC1(C)C`: the TGI in experiment [11], in experiment [1], in [4], in [6], in [7] and in [8] was above 100 µM each time. The compound further displayed a TGI in experiment [9] above 100 µM.
With `O=C1[C@@H]2C(c3ccc(Br)cc3)=NO[C@@H]2C(=O)N1c1ccc(Cc2ccc(N3C(=O)[C@H]4C(c5ccc(Br)cc5)=NO[C@H]4C3=O)cc2)cc1`, the TGI in [11] was above 3.48 µM; in experiment [1] it was above 40 µM; in experiment [4], above 40 µM; in [6], above 40 µM; in experiment [7], above 3.48 µM; in [8] it was above 40 µM. This compound also returned a TGI in experiment [9] above 40 µM. Besides, the GI50 in experiment [4], in [6] and in experiment [9] was above 40 µM in each case.
As for `COc1ccc(C2=Nc3c(nc(OC)[nH]c3=O)NC(c3ccccc3)C2)cc1` (stereo not given), the TGI in experiment [10] is above 100 µM; in [1], above 100 µM; in [3] it was 53.4 µM; in experiment [4] it was above 100 µM; in experiment [5] it was above 100 µM; in experiment [6], 42.7 µM. The TGI is 33.7 µM in [7], above 100 µM in experiment [8] and above 100 µM in experiment [9].
Turning to `O=C(Cc1ccccc1)NN1C(=O)C(Cl)C1c1ccccc1Cl` (stereo not given), the TGI was above 100 µM in experiment [11]; above 100 µM in [1]; above 100 µM in experiment [4]; above 100 µM in [6]; above 100 µM in experiment [7]; 64.4 µM in experiment [8]. This compound also gave a TGI in experiment [9] above 100 µM.
Take `COc1cc2ccc3c4ccccc4cnc3c2cc1OC`: the TGI in experiment [11], in [1], in experiment [4], in [6], in experiment [7] and in experiment [8] was above 100 µM each time. This compound also returned a TGI in [9] above 100 µM.
For `CCOc1ccccc1N=Nc1ccc2oc(=O)c(C(C)=O)cc2c1`, the TGI in experiment [11], in experiment [1], in experiment [4], in experiment [6], in experiment [7] and in [9] was above 100 µM in each case.
`Clc1ccc(Nc2nnc(CNc3ccc(-c4nnc(Nc5ccc(Cl)cc5)s4)cc3)s2)cc1`: the TGI in [10] is above 100 µM; in [11], 48.9 µM; in experiment [1], 30.8 µM; in [3] it was above 100 µM; in experiment [5], above 100 µM; in experiment [6], above 100 µM. The values for the TGI in experiment [7] and in [9] were 79.3 µM and 44.2 µM, respectively.
Take `N#CC(NNC(=O)Cc1ccccc1)c1cccc(O)c1` (stereo not given): the TGI in [1], in [6], in experiment [7], in experiment [8] and in [9] was above 100 µM throughout.
For `COC(=O)C1CC2C=CC=CC(=O)C2(C)C1` (stereo not given), the TGI was 86.3 µM in experiment [1]; above 100 µM in experiment [4]; above 100 µM in [7]; 76.5 µM in experiment [8]; above 100 µM in experiment [9].
Turning to `CN(C)CCN(C)P12(Oc3ccccc3O1)Oc1c(Cl)c(Cl)c(Cl)c(Cl)c1O2`, the TGI in experiment [10], in [11], in [1], in experiment [3], in experiment [4] and in experiment [5] was above 100 µM in each case. Moreover, the TGI in [6], in [7], in experiment [8] and in experiment [9] was above 100 µM each time.
On to `CC1=CC(=O)CC2(C)CCC(C(C)CC(=O)CC(C)C)CC12OO` (stereo not given), for which the TGI is 30.2 µM and 29.7 µM in experiment [1]; 88.3 µM and > 100 µM in experiment [2]; 29.5 µM and 32.7 µM in [3]; 29.1 µM and 27.3 µM in experiment [5]; 28.5 µM and 32.5 µM in experiment [6]; 35.5 µM and 30.3 µM in experiment [7]. Further, the TGI was 41.5 µM and 41.4 µM in experiment [8]; 29.8 µM and 34.7 µM in experiment [9].
